Test systems include NCI-H460 lung; SF-539 CNS; UACC-257 melanoma; RXF 393 renal; 786-0 renal; HCT-15 colon; HCC-2998 colon; MOLT-4 leukemia; OVCAR-5 ovarian; U251 CNS.
Common to all, as to test: growth of human tumour cells (NCI), 48 h

Values joined by “and” are separate entries in the source; they are usually repeats but may differ in a detail not shown here. Identical values can stand only once.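 Briefly, cells in 96-well plates were exposed to five compound concentrations for 48 h, and endpoints were estimated by linear interpolation. GI50 is the concentration that inhibits growth by half. TGI marks complete inhibition of growth.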

Regarding `CCCCC1N=CNc2c1ccc1c2[nH]c2ccccc21` (stereo not drawn), the TGI in the assay on NCI-H460 lung is 4.22 µM; with SF-539 CNS it was 7.91 µM; with UACC-257 melanoma, 3.3 µM; in the assay with RXF 393 renal it was 2.16 µM; in the assay with 786-0 renal it was 3.34 µM; with HCT-15 colon, 4.72 µM. Also, the TGI was 3.01 µM in the assay on HCC-2998 colon, 6.51 µM in the assay with MOLT-4 leukemia, 9.07 µM in the assay on OVCAR-5 ovarian and 16.5 µM in the assay on U251 CNS.
Take `CN(CCCCN)c1ccc2c(=O)[nH][nH]c(=O)c2c1`: the TGI with NCI-H460 lung, in the assay on SF-539 CNS, in the assay on UACC-257 melanoma, in the assay on RXF 393 renal, in the assay with 786-0 renal and in the assay with HCT-15 colon was over 100 µM in each case. In addition, the TGI in the assay on HCC-2998 colon, with MOLT-4 leukemia, in the assay on OVCAR-5 ovarian and in the assay with U251 CNS was over 100 µM in each case.
As to `C/C(CC(=O)Nc1cccc(C)c1C)=N\NC(N)=S`, the TGI in the assay with NCI-H460 lung, in the assay on SF-539 CNS, with UACC-257 melanoma, in the assay with RXF 393 renal, in the assay with 786-0 renal and in the assay with HCT-15 colon was over 100 µM each time. The TGI in the assay with HCC-2998 colon, in the assay on MOLT-4 leukemia, in the assay on OVCAR-5 ovarian and with U251 CNS was over 100 µM throughout.
Regarding `COc1cc(CC(=O)c2cc3c(cc2-c2ccccc2)OCO3)cc(OC)c1OC`, the TGI in the assay on NCI-H460 lung, in the assay with SF-539 CNS, in the assay with UACC-257 melanoma, in the assay with RXF 393 renal, in the assay on 786-0 renal and in the assay with HCT-15 colon was over 100 µM each time. Also, the TGI in the assay on HCC-2998 colon, in the assay with MOLT-4 leukemia, in the assay with OVCAR-5 ovarian and in the assay on U251 CNS was over 100 µM each time.
Regarding `COc1ccc(NC(=O)C2=CC(=O)c3ccc(O)cc3C2=O)c(OC)c1`, the TGI with NCI-H460 lung, in the assay with SF-539 CNS, in the assay on UACC-257 melanoma, in the assay with RXF 393 renal, in the assay on 786-0 renal and in the assay with HCT-15 colon was over 100 µM in each case. In addition, the TGI with HCC-2998 colon, in the assay with MOLT-4 leukemia, in the assay on OVCAR-5 ovarian and in the assay on U251 CNS was over 100 µM throughout.
As to `N/C(=N\C(N)=N\c1nc2ccccc2s1)c1ccnc(Br)c1`, the GI50 was 4.33 µM with NCI-H460 lung; 4.67 µM in the assay with SF-539 CNS; over 100 µM in the assay on UACC-257 melanoma; 2.81 µM in the assay with RXF 393 renal; 5.88 µM with 786-0 renal; 3.92 µM in the assay on HCT-15 colon. The GI50 in the assay with HCC-2998 colon was 66 µM; with MOLT-4 leukemia, 4.35 µM; in the assay on OVCAR-5 ovarian, 62.3 µM; with U251 CNS, 5.63 µM. For the same compound, the TGI with NCI-H460 lung is over 100 µM; with SF-539 CNS, 95 µM; with UACC-257 melanoma it was over 100 µM; with RXF 393 renal it was 27.1 µM; in the assay with 786-0 renal it was over 100 µM; in the assay on HCT-15 colon, over 100 µM. Moreover, the TGI in the assay on HCC-2998 colon is over 100 µM; with MOLT-4 leukemia, over 100 µM; in the assay on OVCAR-5 ovarian it was over 100 µM; in the assay with U251 CNS, 48.9 µM.
For the compound `COc1cccc(/C=C2\CCc3ccccc3C2=O)c1`, the GI50 was 17 µM in the assay with NCI-H460 lung; 16.4 µM in the assay on SF-539 CNS; 13.4 µM in the assay with UACC-257 melanoma; 16.1 µM in the assay with RXF 393 renal; 18.2 µM in the assay with 786-0 renal; 10.5 µM with HCT-15 colon. Further, the GI50 with HCC-2998 colon is 15.8 µM; in the assay on MOLT-4 leukemia, 3.38 µM; in the assay with OVCAR-5 ovarian, 17.6 µM; in the assay with U251 CNS it was 5.3 µM. For the same compound, the TGI is 35 µM in the assay with NCI-H460 lung; 36.9 µM with SF-539 CNS; 28.9 µM in the assay with UACC-257 melanoma; 32.4 µM with RXF 393 renal; 39.9 µM in the assay with 786-0 renal; 49.4 µM in the assay with HCT-15 colon. The TGI stood at 30.6 µM in the assay with HCC-2998 colon, 25.2 µM in the assay with MOLT-4 leukemia, 42.7 µM with OVCAR-5 ovarian and 20.2 µM in the assay with U251 CNS.
Regarding `Cn1c(=O)c(-c2c(Cl)cccc2Cl)cc2cnc(Nc3ccc(I)cc3)nc21`, the GI50 in the assay on NCI-H460 lung is under 0.01 µM; in the assay with SF-539 CNS, under 0.0146 µM; in the assay with UACC-257 melanoma, 2.38 µM; in the assay on RXF 393 renal, 2.44 µM; in the assay on 786-0 renal it was 1.95 µM; with HCT-15 colon, 2.87 µM. In addition, the GI50 was under 0.0293 µM in the assay with HCC-2998 colon, 0.0174 µM in the assay on MOLT-4 leukemia, 0.536 µM in the assay on OVCAR-5 ovarian and 0.305 µM with U251 CNS. Further, the TGI in the assay on NCI-H460 lung is 10.4 µM; in the assay with SF-539 CNS, 0.114 µM; in the assay with UACC-257 melanoma it was over 68.8 µM; with RXF 393 renal it was 15 µM; in the assay on 786-0 renal, 6.22 µM; in the assay with HCT-15 colon it was 9.42 µM. For the same compound, the TGI in the assay on HCC-2998 colon was found to be 0.213 µM; in the assay on MOLT-4 leukemia it was 0.787 µM; in the assay with OVCAR-5 ovarian, 3.69 µM; in the assay with U251 CNS, 13.6 µM.
Regarding `COc1cc2oc(-c3ccc(O)cc3)cc(=O)c2c(OC)c1O`, the TGI with NCI-H460 lung, in the assay with SF-539 CNS, with UACC-257 melanoma, in the assay on RXF 393 renal, in the assay with 786-0 renal and with HCT-15 colon was over 100 µM each time. Besides, the TGI in the assay on HCC-2998 colon, in the assay with MOLT-4 leukemia, in the assay with OVCAR-5 ovarian and in the assay with U251 CNS was over 100 µM each time.
Take `Cc1cc2nc3c4cc([N+](=O)[O-])ccc4n(CCN(C)C)c3nc2cc1C`: the GI50 in the assay on NCI-H460 lung is 0.352 µM; in the assay on SF-539 CNS, 0.469 µM; with UACC-257 melanoma, 0.725 µM; in the assay on RXF 393 renal it was 0.65 µM; with 786-0 renal, 0.628 µM; in the assay with HCT-15 colon, 0.36 µM. Besides, the GI50 in the assay with HCC-2998 colon was 0.683 µM; in the assay with MOLT-4 leukemia, 0.373 µM; in the assay on OVCAR-5 ovarian, 0.651 µM; in the assay with U251 CNS it was 0.48 µM. The TGI with NCI-H460 lung was 1.75 µM; in the assay with SF-539 CNS it was 2.56 µM; with UACC-257 melanoma, 4.21 µM; with RXF 393 renal it was 2.21 µM; in the assay with 786-0 renal, 3.02 µM; in the assay with HCT-15 colon, 3.04 µM. The TGI in the assay on HCC-2998 colon was found to be 2.34 µM; in the assay with MOLT-4 leukemia, 8.68 µM; with OVCAR-5 ovarian, 9.82 µM; with U251 CNS, 11.9 µM.
Regarding `N/C(=N/N=C/c1cccc(F)c1)NO`, the TGI in the assay on NCI-H460 lung is over 100 µM; in the assay on SF-539 CNS, 70 µM; with UACC-257 melanoma, over 100 µM; in the assay on RXF 393 renal, 78.4 µM; in the assay with 786-0 renal, over 100 µM; in the assay with HCT-15 colon, over 100 µM. For the same compound, the TGI with HCC-2998 colon, in the assay with MOLT-4 leukemia, in the assay on OVCAR-5 ovarian and in the assay on U251 CNS was over 100 µM in each case.
On to `ClCc1ccc(-c2ccc(Cn3cnc4c(Cl)ncnc43)cc2)cc1`, for which the GI50 in the assay on NCI-H460 lung was 0.486 µM; with SF-539 CNS, 1.52 µM; with UACC-257 melanoma, 3.76 µM; in the assay on RXF 393 renal, 1.88 µM; with 786-0 renal it was 1.62 µM; in the assay with HCT-15 colon, 1.9 µM. Besides, the GI50 in the assay on HCC-2998 colon was 1.44 µM; in the assay on MOLT-4 leukemia, 1.79 µM; with OVCAR-5 ovarian it was 2.31 µM; with U251 CNS, 1.81 µM. Further, the TGI in the assay with NCI-H460 lung is 2.65 µM; in the assay with SF-539 CNS, 3.14 µM; with UACC-257 melanoma it was 24.7 µM; with RXF 393 renal it was 4.51 µM; with 786-0 renal it was 2.97 µM; in the assay with HCT-15 colon, 4.47 µM. Moreover, the TGI in the assay with HCC-2998 colon was 2.89 µM; in the assay on MOLT-4 leukemia it was over 100 µM; with OVCAR-5 ovarian, 6.01 µM; in the assay with U251 CNS it was 3.95 µM.
Take `C/C(CC(=O)Nc1ccc([N+](=O)[O-])cc1)=N\Nc1ccc([N+](=O)[O-])cc1[N+](=O)[O-]`: the TGI with NCI-H460 lung, with SF-539 CNS, in the assay on UACC-257 melanoma, in the assay on RXF 393 renal, in the assay on 786-0 renal and in the assay with HCT-15 colon was over 100 µM throughout. The TGI in the assay with HCC-2998 colon was 65.4 µM; in the assay with MOLT-4 leukemia, over 100 µM; in the assay with OVCAR-5 ovarian, over 100 µM; in the assay on U251 CNS, over 100 µM.
For `COC(=O)Cc1nn2c(nc1=O)sc1ccc3ccccc3c12`, the TGI with NCI-H460 lung was over 100 µM; with SF-539 CNS it was over 100 µM; with UACC-257 melanoma it was over 100 µM; in the assay on RXF 393 renal, 96 µM; in the assay on 786-0 renal, over 100 µM; with HCT-15 colon it was over 100 µM. The TGI is over 100 µM in the assay on HCC-2998 colon, over 100 µM with MOLT-4 leukemia, over 100 µM in the assay with OVCAR-5 ovarian and 74.1 µM with U251 CNS.
Turning to `Cc1ccnc(NC(c2ccccc2)c2ccc3cccnc3c2O)c1` (stereo not drawn), the GI50 in the assay with NCI-H460 lung was 2.16 µM; in the assay with SF-539 CNS it was 3.35 µM; in the assay with UACC-257 melanoma it was 2.62 µM; in the assay on RXF 393 renal, 7.93 µM; in the assay with 786-0 renal it was 2.93 µM; with HCT-15 colon it was 3.35 µM. For the same compound, the GI50 was 7.12 µM in the assay on HCC-2998 colon, 2.53 µM in the assay on MOLT-4 leukemia, 8.86 µM in the assay with OVCAR-5 ovarian and 2.85 µM in the assay on U251 CNS. Also, the TGI was 6.34 µM in the assay on NCI-H460 lung; 19.2 µM in the assay on SF-539 CNS; 9.9 µM with UACC-257 melanoma; over 100 µM in the assay with RXF 393 renal; 35.1 µM with 786-0 renal; over 100 µM with HCT-15 colon. For the same compound, the TGI in the assay with HCC-2998 colon is over 100 µM; in the assay on MOLT-4 leukemia, over 100 µM; with OVCAR-5 ovarian, over 100 µM; in the assay with U251 CNS, 12.7 µM.
For the compound `COc1ccc(/C=C/C(=O)c2ccccc2)cc1OC`, the GI50 was 14.3 µM in the assay on NCI-H460 lung; 16.4 µM in the assay on SF-539 CNS; 14.6 µM with 786-0 renal; 5.23 µM with HCT-15 colon; 14.2 µM in the assay with HCC-2998 colon; 17.9 µM with MOLT-4 leukemia. Besides, the figures for the GI50 in the assay with OVCAR-5 ovarian and in the assay with U251 CNS were 21.4 µM and 5.81 µM, respectively. Also, the TGI in the assay on NCI-H460 lung was 32.5 µM and 37.5 µM; in the assay with SF-539 CNS, 25.7 µM and 36.1 µM; with UACC-257 melanoma, 31.7 µM and 31.4 µM; with RXF 393 renal, 48.2 µM and 27.6 µM; with 786-0 renal, 17.9 µM and 33.7 µM; in the assay with HCT-15 colon, 34.9 µM and 24.8 µM. For the same compound, the TGI in the assay on HCC-2998 colon is 33.2 µM and 28.6 µM; in the assay with MOLT-4 leukemia, over 100 µM; with OVCAR-5 ovarian, 33.5 µM and 44.1 µM; in the assay with U251 CNS, 21.9 µM and 18.1 µM.

The record behind these values is PubChem BioAssay (NCI).
